Where two headings read alike, the source gives them in different places.
Key:
PC-9 = test: Cell proliferation assay, PC-9 cells (CellTiter-Glo, 72 hours); format: cell-based; details: Homo sapiens, PC-9, 72 h, PC9 cells, read-out: GI50 PC9
Outline: (§1)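 Growth over 72 h was quantified by CellTiter-Glo luminescence, normalised as (G3 − G0)/(DMSO G3 − G0), for PC-9 cells seeded at 500/well and EGFR-mutant Ba/F3 cells at 5000/well in RPMI1640. Compound concentration series added after overnight incubation; GI50 obtained from best-fit curves.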

EGFR[T790M/C797S/L858R] = target: T1, EGFR[T790M/C797S/L858R] (Homo sapiens, UniProt P00533, C797S/L858R/T790M); test: Inhibition of EGFR[T790M/C797S/L858R] biochemical enzymatic activity (HTRF); details: EGFR[T790M/C797S/L858R], 1 mM ATP, 1 h at room temperature, read-out: IC50 @T790M- C797S - L858R
T1 construct: purchased Carna Bio
Outline: (§2)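 In a buffer with 5 mM MgCl2, 1 mM MnCl2, 1 mM DTT and 0.01% CHAPS, enzyme turnover of 1 μM biotinylated TK substrate at 1 mM ATP is followed by HTRF after 1 h at room temperature. IC50 is obtained by a four-parameter fit.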

EGFR wild type = target: T2, EGFR wild type (Homo sapiens, UniProt P00533); test: Inhibition of EGFR wild type biochemical enzymatic activity (HTRF); details: EGFR wild type, 1 mM ATP, 1 h at room temperature, read-out: IC50 @WT
T2 construct: purchased Carna Bio
Outline: as §2

EGFR (d746-750 C797S) = target: T3, EGFR (d746-750 C797S) (Homo sapiens, UniProt P00533, C797S/DEL746-750); test: Inhibition of EGFR (d746-750 C797S) biochemical enzymatic activity (HTRF); details: EGFR (d746-750 C797S), 1 mM ATP, 1 h at room temperature, read-out: IC50 @Del19-C797S
T3 construct: purchased signalchem
Outline: as §2

[1] = target: T4, EGFR[T790M/C797S/d746-750] (Homo sapiens, UniProt P00533, C797S/DEL746-750/T790M); test: Inhibition of EGFR[T790M/C797S/d746-750] biochemical enzymatic activity (HTRF); details: EGFR[T790M/C797S/d746-750], 1 mM ATP, 1 h at room temperature, read-out: IC50 @T790M - C797S - Del19
T4 construct: purchased Carna Bio
Outline: as §2

EGFR (C797S L858R) = target: T5, EGFR (C797S L858R) (Homo sapiens, UniProt P00533, C797S/L858R); test: Inhibition of EGFR (C797S L858R) biochemical enzymatic activity (HTRF); details: EGFR (C797S L858R), 1 mM ATP, 1 h at room temperature, read-out: IC50 @L858-C797S
T5 construct: purchased signalchem
Outline: as §2

EGFR L858R = target: T6, EGFR L858R (Homo sapiens, UniProt P00533, L858R); test: Inhibition of EGFR L858R biochemical enzymatic activity (HTRF); details: 1 mM ATP, 1 h at room temperature, read-out: IC50 @L858R
T6 construct: purchased Carna Bio
Outline: as §2

EGFR Exon19Del = target: T7, EGFR Exon19Del (Homo sapiens, UniProt P00533, DEL746-750); test: Inhibition of EGFR Exon19Del biochemical enzymatic activity (HTRF); details: EGFR Exon19Del, 1 mM ATP, 1 h at room temperature, read-out: IC50 @Del19
T7 construct: purchased Carna Bio
Outline: as §2

EGFR Exon19Del/T790M = target: T8, EGFR Exon19Del/T790M (Homo sapiens, UniProt P00533, DEL746-750/T790M); test: Inhibition of EGFR Exon19Del/T790M biochemical enzymatic activity (HTRF); details: EGFR Exon19Del/T790M, 1 mM ATP, 1 h at room temperature, read-out: IC50 @Del19-T790M
T8 construct: purchased Carna Bio
Outline: as §2

EGFR L858R/T790M = target: T9, EGFR L858R/T790M (Homo sapiens, UniProt P00533, L858R/T790M); test: Inhibition of EGFR L858R/T790M biochemical enzymatic activity (HTRF); details: EGFR L858R/T790M, 1 mM ATP, 1 h at room temperature, read-out: IC50 @L858R-T790M
T9 construct: purchased Carna Bio
Outline: as §2

A-431 = test: Cell proliferation assay, A-431 cells (GI50, Table 6); format: cell-based; details: Homo sapiens, A-431, A-431 cells
[2] = test system: Ba/F3 cells expressing EGFR mutations; test: Cell proliferation assay, Ba/F3 cells expressing EGFR mutations (CellTiter-Glo, 72 hours); format: cell-based; details: Mus musculus, BaF3, 72 h
Outline: as §1

[3] = BaF3 cells, EGFR DEL19 - C797S, read-out: GI50 DEL19 - C797S/BaF3
[4] = BaF3 cells, EGFR DEL19 - T790-C797S, read-out: GI50 DEL19 - T790-C797S/BaF3
[5] = BaF3 cells, EGFR L858R - C797S, read-out: GI50 L858R - C797S/BaF3
[6] = BaF3 cells, EGFR L858R - T790-C797S, read-out: GI50 L858R - T790-C797S/BaF3
[7] = BaF3 cells, EGFR L858R - T790M, read-out: GI50 L858R - T790M/BaF3
[8] = BaF3 cells, EGFR L858R, read-out: GI50 L858R/BaF3
[9] = EGFR DEL19 - T790M, read-out: GI50 DEL19 - T790M

T8 sequence (P00533 with tags, fused parts or gaps DEL746-750/T790M limits assumed): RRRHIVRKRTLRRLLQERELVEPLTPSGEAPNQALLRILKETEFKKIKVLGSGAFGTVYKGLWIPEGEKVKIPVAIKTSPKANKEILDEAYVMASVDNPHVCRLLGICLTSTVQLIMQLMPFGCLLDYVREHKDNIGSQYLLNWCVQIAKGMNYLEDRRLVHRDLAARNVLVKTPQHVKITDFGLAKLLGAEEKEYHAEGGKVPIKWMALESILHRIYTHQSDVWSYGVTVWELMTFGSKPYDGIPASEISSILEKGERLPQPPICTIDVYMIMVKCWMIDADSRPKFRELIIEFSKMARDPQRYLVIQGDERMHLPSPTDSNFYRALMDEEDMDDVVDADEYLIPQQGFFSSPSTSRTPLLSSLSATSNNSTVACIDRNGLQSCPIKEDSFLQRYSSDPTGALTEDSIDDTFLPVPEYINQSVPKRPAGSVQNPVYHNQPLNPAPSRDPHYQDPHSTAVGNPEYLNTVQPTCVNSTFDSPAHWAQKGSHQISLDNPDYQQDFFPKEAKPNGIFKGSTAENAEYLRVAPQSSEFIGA
T6 sequence (P00533 25-1210 L858R): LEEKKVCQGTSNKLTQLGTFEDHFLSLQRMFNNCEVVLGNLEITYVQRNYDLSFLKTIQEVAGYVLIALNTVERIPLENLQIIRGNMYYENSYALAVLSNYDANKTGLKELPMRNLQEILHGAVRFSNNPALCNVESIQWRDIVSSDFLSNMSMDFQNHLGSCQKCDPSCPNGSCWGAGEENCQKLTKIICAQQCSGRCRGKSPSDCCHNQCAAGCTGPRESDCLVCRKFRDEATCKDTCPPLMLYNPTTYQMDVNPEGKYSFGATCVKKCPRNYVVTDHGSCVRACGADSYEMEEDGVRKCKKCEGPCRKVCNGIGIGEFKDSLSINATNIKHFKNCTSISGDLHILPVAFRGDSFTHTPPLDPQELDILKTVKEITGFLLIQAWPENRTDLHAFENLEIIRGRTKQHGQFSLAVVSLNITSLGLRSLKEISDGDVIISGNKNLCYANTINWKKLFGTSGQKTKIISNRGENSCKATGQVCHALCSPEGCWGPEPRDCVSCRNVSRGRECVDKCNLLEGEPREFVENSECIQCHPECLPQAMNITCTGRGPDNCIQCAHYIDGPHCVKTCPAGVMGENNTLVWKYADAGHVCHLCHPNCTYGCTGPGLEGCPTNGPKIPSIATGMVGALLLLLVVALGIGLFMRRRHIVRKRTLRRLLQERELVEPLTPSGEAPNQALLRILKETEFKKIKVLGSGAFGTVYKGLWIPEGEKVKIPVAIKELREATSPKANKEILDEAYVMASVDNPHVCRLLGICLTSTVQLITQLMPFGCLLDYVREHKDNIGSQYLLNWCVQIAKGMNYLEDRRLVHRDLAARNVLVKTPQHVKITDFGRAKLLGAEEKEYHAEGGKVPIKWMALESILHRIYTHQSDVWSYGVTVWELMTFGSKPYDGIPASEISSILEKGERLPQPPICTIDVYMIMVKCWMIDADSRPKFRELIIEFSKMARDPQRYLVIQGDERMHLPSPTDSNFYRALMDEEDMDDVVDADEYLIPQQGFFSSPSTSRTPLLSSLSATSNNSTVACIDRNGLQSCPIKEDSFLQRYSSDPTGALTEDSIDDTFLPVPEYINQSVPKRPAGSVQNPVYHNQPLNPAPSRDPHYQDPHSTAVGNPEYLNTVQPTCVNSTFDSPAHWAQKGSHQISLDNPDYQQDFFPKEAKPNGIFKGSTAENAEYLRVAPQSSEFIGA
T4 sequence (P00533 with tags, fused parts or gaps DEL746-750/T790M/C797S limits assumed): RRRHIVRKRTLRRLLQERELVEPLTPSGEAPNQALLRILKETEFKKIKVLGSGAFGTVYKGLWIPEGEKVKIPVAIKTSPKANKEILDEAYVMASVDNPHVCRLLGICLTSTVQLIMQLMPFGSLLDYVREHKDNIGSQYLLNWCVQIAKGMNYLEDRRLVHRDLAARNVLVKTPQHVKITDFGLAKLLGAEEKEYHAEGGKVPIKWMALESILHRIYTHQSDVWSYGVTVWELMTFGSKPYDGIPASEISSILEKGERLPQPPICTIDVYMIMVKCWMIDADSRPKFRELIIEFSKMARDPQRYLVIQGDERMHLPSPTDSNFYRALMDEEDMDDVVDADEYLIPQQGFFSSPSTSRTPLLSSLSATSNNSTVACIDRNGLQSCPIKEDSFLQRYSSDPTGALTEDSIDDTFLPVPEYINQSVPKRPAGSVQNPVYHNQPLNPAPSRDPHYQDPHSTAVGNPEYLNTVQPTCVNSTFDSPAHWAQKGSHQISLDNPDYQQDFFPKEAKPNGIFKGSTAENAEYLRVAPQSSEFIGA
T1 sequence (P00533 25-1210 T790M/C797S/L858R): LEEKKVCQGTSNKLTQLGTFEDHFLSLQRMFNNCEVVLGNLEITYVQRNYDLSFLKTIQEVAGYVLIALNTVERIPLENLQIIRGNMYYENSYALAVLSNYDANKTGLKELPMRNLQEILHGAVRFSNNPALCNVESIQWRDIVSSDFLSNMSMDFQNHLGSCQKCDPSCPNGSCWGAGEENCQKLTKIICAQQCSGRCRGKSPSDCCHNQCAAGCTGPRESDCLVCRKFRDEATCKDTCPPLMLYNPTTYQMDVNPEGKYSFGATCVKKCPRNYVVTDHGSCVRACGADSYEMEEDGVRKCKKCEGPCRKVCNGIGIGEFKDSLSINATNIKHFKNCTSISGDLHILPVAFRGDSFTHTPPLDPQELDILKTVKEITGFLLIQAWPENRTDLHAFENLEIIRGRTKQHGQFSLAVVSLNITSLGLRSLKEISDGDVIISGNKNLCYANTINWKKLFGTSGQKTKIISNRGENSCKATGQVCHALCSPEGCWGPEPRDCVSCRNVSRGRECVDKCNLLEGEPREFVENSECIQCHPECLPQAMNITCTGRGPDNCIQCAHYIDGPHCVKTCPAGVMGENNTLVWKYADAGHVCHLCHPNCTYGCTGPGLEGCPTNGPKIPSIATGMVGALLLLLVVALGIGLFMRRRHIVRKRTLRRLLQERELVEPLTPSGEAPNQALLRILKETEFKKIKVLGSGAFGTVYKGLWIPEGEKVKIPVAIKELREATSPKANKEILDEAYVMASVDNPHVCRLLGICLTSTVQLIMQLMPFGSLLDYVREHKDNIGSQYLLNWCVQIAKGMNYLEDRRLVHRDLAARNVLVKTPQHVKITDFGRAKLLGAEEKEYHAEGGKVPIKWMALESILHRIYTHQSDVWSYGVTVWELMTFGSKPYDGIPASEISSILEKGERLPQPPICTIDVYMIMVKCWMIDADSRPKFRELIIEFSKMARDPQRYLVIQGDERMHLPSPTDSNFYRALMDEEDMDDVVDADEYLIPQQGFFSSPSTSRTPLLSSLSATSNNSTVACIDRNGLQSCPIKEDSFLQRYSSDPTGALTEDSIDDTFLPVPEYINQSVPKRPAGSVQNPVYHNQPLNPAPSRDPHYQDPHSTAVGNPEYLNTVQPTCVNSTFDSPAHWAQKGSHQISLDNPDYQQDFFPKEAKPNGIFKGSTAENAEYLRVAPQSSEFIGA
T3 sequence (P00533 with tags, fused parts or gaps DEL746-750/C797S limits assumed): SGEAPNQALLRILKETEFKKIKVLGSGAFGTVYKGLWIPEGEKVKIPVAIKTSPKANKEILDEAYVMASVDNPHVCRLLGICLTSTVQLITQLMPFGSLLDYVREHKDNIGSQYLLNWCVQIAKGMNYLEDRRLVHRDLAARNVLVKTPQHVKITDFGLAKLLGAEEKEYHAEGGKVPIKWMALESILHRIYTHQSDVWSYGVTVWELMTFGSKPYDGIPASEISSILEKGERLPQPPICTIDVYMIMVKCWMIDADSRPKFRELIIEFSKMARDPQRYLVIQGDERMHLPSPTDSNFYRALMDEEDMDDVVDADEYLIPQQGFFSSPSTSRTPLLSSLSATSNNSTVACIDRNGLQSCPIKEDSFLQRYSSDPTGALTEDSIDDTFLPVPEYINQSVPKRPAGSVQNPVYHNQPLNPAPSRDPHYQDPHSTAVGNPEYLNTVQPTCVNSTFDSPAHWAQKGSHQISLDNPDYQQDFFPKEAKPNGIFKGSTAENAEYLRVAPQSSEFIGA
T7 sequence (P00533 with tags, fused parts or gaps DEL746-750 limits assumed): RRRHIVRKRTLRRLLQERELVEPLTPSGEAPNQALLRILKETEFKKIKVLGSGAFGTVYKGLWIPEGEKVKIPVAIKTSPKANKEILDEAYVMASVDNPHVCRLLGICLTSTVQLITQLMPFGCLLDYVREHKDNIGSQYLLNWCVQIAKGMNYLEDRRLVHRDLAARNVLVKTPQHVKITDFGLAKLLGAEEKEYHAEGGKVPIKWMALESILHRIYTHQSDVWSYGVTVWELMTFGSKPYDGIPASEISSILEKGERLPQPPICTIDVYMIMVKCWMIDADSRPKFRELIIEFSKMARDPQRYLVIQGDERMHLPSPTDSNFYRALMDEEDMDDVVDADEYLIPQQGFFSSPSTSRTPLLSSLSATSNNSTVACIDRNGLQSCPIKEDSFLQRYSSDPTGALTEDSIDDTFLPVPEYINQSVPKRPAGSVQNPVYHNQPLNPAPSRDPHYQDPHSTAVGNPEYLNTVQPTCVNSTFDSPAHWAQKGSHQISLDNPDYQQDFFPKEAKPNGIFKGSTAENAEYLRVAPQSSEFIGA

Compound | GI50 (PC-9) | IC50 (EGFR[T790M/C797S/L858R]) | IC50 (EGFR wild type) | IC50 (EGFR (d746-750 C797S)) | IC50 [1] | IC50 (EGFR (C797S L858R)) | IC50 (EGFR L858R) | IC50 (EGFR Exon19Del) | IC50 (EGFR Exon19Del/T790M) | IC50 (EGFR L858R/T790M) | GI50 (A-431) | GI50 [2, 3] | GI50 [2, 4] | GI50 [2, 5] | GI50 [2, 6] | GI50 [2, 7] | GI50 [2, 8] | GI50 [2, 9]
Cc1cc2cc(n1)-c1cnn(C)c1OCCN1CC3CCC(CC3)(C1)n1c(nc3ccc(N(C)CCCN(C)C)cc31)NC2=O [Example B33] | 75 nM | 6.2 nM | > 5000 nM | 22 nM | 3 nM | 131 nM | 214 nM | 28 nM | 9.9 nM | 20 nM | 3740 nM | 10 nM | 3 nM | 69 nM | 7 nM | 13 nM | 62 nM | 4 nM
Cc1cc2cc(n1)-c1cnn(C)c1OCCN1CC3CCC(CC3)(C1)n1c(nc3ccc(N4CCN(C5CC5)CC4)cc31)NC2=O [Example B36] | 186 nM | 2.9 nM | > 5000 nM | 10 nM | 3.7 nM | 159 nM | 734 nM | 24 nM | 5.8 nM | 7.6 nM | 3420 nM | 27 nM | 8 nM | 234 nM | 15 nM | 29 nM | 200 nM | 10 nM
Cc1cc2cc(n1)-c1cnn(C)c1OCCN1CC3CCC(CC3)(C1)n1c(nc3ccc(N4CCN(C(C)C)CC4)cc31)NC2=O [Example B39] | 178 nM | 4.2 nM | > 5000 nM | 9.4 nM | 3.3 nM | 126 nM | 282 nM | 20 nM | 6.6 nM | 7.7 nM | 7730 nM | 24 nM | 8 nM | 101 nM | 4 nM | 18 nM | 167 nM | 7 nM

The next lines start with the values.

GI50 (PC-9) | IC50 (EGFR[T790M/C797S/L858R]) | IC50 (EGFR wild type) | IC50 (EGFR (d746-750 C797S)) | IC50 [1] | IC50 (EGFR (C797S L858R)) | IC50 (EGFR L858R) | IC50 (EGFR Exon19Del) | IC50 (EGFR Exon19Del/T790M) | IC50 (EGFR L858R/T790M) | GI50 (A-431) | GI50 [2, 3] | GI50 [2, 4] | GI50 [2, 5] | GI50 [2, 6] | GI50 [2, 7] | GI50 [2, 8] | GI50 [2, 9] | Compound
86 nM | 8.4 nM | > 5000 nM | 20 nM | 5.4 nM | 203 nM | 421 nM | 39 nM | 12 nM | 16 nM | 4520 nM | 11 nM | 4 nM | 83 nM | 9 nM | 17 nM | 64 nM | 4 nM | Cc1cc2cc(n1)-c1cnn(C)c1OCCN1CC3CCC(CC3)(C1)n1c(nc3ccc(N4CC5CN(C)CC5C4)cc31)NC2=O (stereo not drawn) [Example B34]
121 nM | 5 nM | > 5000 nM | 14 nM | 6 nM | 185 nM | 378 nM | 30 nM | 9 nM | 13 nM | 6630 nM | 10 nM | 3 nM | 108 nM | 7 nM | 20 nM | 62 nM | 3 nM | Cc1cc2cc(n1)-c1cnn(C)c1OCCN1CC3CCC(CC3)(C1)n1c(nc3ccc(N4CC5CCN(C)C5C4)cc31)NC2=O (stereo not drawn) [Example B35]
106 nM | 5.6 nM | > 5000 nM | 13 nM | 3.9 nM | 99 nM | 194 nM | 19 nM | 9 nM | 13 nM | 5040 nM | 12 nM | 5 nM | 73 nM | 9 nM | 28 nM | 74 nM | 5 nM | Cc1cc2cc(n1)-c1cnn(C)c1OCCN1CC3CCC(CC3)(C1)n1c(nc3ccc(N4CCC5(CN(C)C5)C4)cc31)NC2=O [Example B37]

From patent US20260365670A1, “EGFR INHIBITORS AND USES THEREOF” (DIZAL (JIANGSU) PHARMACEUTICAL CO., LTD., priority 2022, published 2026)
